In publication PMC7865522, “Analyzing Kinase Similarity in Small Molecule and Protein Structural Space to Explore the Limits of Multi-Target Screening” (Molecules, 2021):

Key:
BRAF [1] = biological target: T1, BRAF (Homo sapiens, UniProt P15056); assay: DiscoverX KINOMEscan competition binding assay; settings: compound 10 µM; lower values = higher affinity; below 35% = significant binding
T1 construct: purchased DiscoverX (KINOMEscan service); host or cells: E. coli BL21-derived host (T7 phage) or HEK-293
T1 sequence (P15056 whole entry): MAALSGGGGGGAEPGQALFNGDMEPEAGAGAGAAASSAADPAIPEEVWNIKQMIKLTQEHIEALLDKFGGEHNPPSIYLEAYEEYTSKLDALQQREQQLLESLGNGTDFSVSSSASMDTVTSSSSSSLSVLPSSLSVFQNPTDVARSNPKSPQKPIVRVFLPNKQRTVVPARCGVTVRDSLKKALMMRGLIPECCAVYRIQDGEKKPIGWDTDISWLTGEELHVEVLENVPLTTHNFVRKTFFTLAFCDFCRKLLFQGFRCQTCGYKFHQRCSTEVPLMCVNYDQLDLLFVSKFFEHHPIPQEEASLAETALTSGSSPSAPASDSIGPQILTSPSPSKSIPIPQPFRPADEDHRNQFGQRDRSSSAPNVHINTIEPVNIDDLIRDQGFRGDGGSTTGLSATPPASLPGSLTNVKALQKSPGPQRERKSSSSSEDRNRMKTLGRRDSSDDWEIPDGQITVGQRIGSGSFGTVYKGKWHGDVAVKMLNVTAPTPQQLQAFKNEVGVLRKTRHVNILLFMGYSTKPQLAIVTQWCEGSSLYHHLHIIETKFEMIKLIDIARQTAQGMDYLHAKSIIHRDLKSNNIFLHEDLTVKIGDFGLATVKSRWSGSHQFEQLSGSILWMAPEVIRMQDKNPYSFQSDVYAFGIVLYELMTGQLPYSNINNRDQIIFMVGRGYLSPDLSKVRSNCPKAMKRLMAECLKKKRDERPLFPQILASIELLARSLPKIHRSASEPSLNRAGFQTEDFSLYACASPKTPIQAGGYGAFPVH
Method: (§1) Ligand binding experiments for the molecules selected from Profiles 1 and 2 towards nine kinases (EGFR, ErbB2, LCK, CDK2, BRAF, MET, p38α, PI3K and VEGFR2) and for molecules selected from Profiles 3 and 4 towards four kinases (EGFR, ErbB2, BRAF and VEGFR2) were carried out by DiscoverX using the supplied protocol as described in the Supplementary Materials. Briefly, ligand affinity was measured by competition with a resin-bound standard ligand and washed-off kinase concentration was determined via qPCR.
(§2) Summarizing, binding of a compound to a kinase was tested in comparison to a control compound (see Table S2). […]
(§3) 1.1. DiscoverX kinase assay
(§4) For most assays, kinase-tagged T7 phage strains were grown in parallel in 24-well blocks in an E.coli host derived from the BL21 strain. E.coli were grown to log-phase and infected with T7 phage from a frozen stock (multiplicity of infection = 0.4) and incubated with shaking at 32°C until lysis (90-150 minutes). The lysates were centrifuged (6,000 x g) and ﬁltered (0.2µm) to remove cell debris.
(§5) The remaining kinases were produced in HEK-293 cells and subsequently tagged with DNA for qPCR detection. Streptavidin-coated magnetic beads were treated with biotinylated small molecule ligands for 30 minutes at room temperature to generate afﬁnity resins for the kinases. The liganded beads were blocked with excess biotin and washed with blocking buffer (SeaBlock [Pierce], 1% BSA, 0.05% Tween 20, 1 mM DTT) to remove unbound ligands and to reduce non-speciﬁc phage binding. Binding reactions were assembled by combining kinases, liganded afﬁnity beads, and test compounds in 1x binding buffer (20% SeaBlock, 0.17x PBS, 0.05% Tween 20, 6 mM DTT). Test compounds were prepared as 40x stocks in 100% DMSO and directly diluted into the assay. All reactions were performed in polypropylene 384-well plates in a ﬁnal volume of 0.02 ml. The assay plates were incubated at room temperature with shaking for 1 hour and the afﬁnity beads were washed with wash buffer (1x PBS, 0.05% Tween 20). The beads were then re-suspended in elution buffer (1x PBS, 0.05% Tween 20, 0.5 µM non-biotinylated afﬁnity ligand) and incubated at room temperature with shaking for 30 minutes. The kinase concentration in the eluates was measured by qPCR. […]
(§6) Table S2. Experimental % control values from the DiscoverX kinase assay. Compounds were tested against the nine kinases EGFR, ErbB2, LCK, CDK2, BRAF, MET, p38α, PI3K and VEGFR2, unless otherwise stated. Binding of kinase and compound were tested at a compound concentration of 10 µM and in comparison to a control compound. Lower values indicate a higher afﬁnity of the compound to the protein and values below 35% indicate signiﬁcant binding according to information of the CRO. […]
(§7) a Compounds were only tested against four kinases (EGFR, ErbB2, BRAF and VEGFR2). b Compound was selected independently from two docking proﬁles and tested separately during

CDK2 = biological target: T2, CDK2 (Homo sapiens, UniProt P24941); assay: DiscoverX KINOMEscan competition binding assay; settings: compound 10 µM; lower values = higher affinity; below 35% = significant binding
T2 construct: purchased DiscoverX (KINOMEscan service); host or cells: E. coli BL21-derived host (T7 phage) or HEK-293
Method: as §1, §2, §3, §4, §5, §6, §7

EGFR [2] = biological target: T3, EGFR (Homo sapiens, UniProt P00533); assay: DiscoverX KINOMEscan competition binding assay; settings: compound 10 µM; lower values = higher affinity; below 35% = significant binding
T3 construct: purchased DiscoverX (KINOMEscan service); host or cells: E. coli BL21-derived host (T7 phage) or HEK-293
Method: as §1, §2, §3, §4, §5, §6, §7

ErbB2 [3] = biological target: T4, ErbB2 (Homo sapiens, UniProt P04626); assay: DiscoverX KINOMEscan competition binding assay; settings: compound 10 µM; lower values = higher affinity; below 35% = significant binding
T4 construct: purchased DiscoverX (KINOMEscan service); host or cells: E. coli BL21-derived host (T7 phage) or HEK-293
Method: as §1, §2, §3, §4, §5, §6, §7

LCK = biological target: T5, LCK (Homo sapiens, UniProt P06239); assay: DiscoverX KINOMEscan competition binding assay; settings: compound 10 µM; lower values = higher affinity; below 35% = significant binding
T5 construct: purchased DiscoverX (KINOMEscan service); host or cells: E. coli BL21-derived host (T7 phage) or HEK-293
T5 sequence (P06239 whole entry): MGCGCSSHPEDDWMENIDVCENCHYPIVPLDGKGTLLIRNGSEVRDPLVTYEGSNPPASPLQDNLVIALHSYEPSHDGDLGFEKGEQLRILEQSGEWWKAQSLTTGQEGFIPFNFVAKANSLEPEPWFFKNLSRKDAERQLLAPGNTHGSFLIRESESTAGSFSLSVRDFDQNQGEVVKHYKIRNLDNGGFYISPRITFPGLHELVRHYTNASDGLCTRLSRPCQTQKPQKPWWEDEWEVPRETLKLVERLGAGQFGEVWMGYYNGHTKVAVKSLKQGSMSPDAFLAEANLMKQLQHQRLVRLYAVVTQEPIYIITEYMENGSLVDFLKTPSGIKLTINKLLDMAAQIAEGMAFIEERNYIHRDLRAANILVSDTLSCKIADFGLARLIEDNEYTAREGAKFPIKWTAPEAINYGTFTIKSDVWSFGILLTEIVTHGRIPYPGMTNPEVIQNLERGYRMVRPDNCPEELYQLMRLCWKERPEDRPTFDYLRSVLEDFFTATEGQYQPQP
Method: as §1, §2, §3, §4, §5, §6, §7

MET = biological target: T6, MET (Homo sapiens, UniProt P08581); assay: DiscoverX KINOMEscan competition binding assay; settings: compound 10 µM; lower values = higher affinity; below 35% = significant binding
T6 construct: purchased DiscoverX (KINOMEscan service); host or cells: E. coli BL21-derived host (T7 phage) or HEK-293
T6 sequence (P08581 25-1390): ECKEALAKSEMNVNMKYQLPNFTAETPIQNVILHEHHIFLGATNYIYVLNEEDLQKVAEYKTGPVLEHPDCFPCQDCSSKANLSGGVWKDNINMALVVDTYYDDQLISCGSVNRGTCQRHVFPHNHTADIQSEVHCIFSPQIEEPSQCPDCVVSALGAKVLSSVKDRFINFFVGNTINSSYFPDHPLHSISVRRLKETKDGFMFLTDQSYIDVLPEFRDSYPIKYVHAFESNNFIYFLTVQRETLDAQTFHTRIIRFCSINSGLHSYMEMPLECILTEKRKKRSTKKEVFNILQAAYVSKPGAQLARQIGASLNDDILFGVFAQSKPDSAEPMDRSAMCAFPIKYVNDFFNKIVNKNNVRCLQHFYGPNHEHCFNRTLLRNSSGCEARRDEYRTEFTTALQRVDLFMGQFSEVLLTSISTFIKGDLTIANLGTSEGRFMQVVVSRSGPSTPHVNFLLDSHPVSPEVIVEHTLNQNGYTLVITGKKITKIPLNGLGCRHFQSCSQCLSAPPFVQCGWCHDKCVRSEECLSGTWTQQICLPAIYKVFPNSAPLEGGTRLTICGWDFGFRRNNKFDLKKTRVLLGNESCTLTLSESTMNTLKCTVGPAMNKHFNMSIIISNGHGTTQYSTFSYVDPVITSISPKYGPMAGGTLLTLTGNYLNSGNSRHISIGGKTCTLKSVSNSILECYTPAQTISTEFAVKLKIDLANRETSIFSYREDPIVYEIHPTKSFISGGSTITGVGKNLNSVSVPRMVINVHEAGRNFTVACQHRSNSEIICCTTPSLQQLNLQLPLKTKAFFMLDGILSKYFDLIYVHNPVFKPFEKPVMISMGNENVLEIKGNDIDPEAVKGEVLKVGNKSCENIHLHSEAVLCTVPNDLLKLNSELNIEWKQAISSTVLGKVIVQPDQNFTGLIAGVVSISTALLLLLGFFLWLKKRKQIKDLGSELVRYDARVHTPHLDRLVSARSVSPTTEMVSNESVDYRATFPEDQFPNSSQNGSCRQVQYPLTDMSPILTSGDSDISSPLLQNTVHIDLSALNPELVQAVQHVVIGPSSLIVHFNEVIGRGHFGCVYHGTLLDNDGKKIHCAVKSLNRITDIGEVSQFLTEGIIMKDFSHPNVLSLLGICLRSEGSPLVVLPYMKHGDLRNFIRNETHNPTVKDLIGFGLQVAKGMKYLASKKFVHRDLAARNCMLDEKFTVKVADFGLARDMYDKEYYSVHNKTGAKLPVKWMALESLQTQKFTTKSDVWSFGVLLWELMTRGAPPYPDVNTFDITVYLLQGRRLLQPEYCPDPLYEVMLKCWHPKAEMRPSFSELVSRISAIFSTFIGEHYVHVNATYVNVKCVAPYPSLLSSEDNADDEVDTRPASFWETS
Method: as §1, §2, §3, §4, §5, §6, §7

VEGFR2 = biological target: T7, VEGFR2 (Homo sapiens, UniProt P35968); assay: DiscoverX KINOMEscan competition binding assay; settings: compound 10 µM; lower values = higher affinity; below 35% = significant binding
T7 construct: purchased DiscoverX (KINOMEscan service); host or cells: E. coli BL21-derived host (T7 phage) or HEK-293
Method: as §1, §2, §3, §4, §5, §6, §7

p38α = biological target: T8, p38α (Homo sapiens, UniProt Q16539); assay: DiscoverX KINOMEscan competition binding assay; settings: compound 10 µM; lower values = higher affinity; below 35% = significant binding
T8 construct: purchased DiscoverX (KINOMEscan service); host or cells: E. coli BL21-derived host (T7 phage) or HEK-293
T8 sequence (Q16539 whole entry): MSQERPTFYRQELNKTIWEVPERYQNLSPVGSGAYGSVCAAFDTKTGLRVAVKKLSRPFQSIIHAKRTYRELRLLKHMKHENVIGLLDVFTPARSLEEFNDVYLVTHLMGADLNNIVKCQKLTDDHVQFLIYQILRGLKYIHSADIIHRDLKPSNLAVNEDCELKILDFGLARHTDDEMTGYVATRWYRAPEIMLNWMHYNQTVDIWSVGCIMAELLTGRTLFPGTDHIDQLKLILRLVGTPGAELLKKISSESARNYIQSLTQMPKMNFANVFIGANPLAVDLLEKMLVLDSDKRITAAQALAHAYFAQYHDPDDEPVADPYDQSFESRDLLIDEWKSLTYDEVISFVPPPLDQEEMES
Method: as §1, §2, §3, §4, §5, §6, §7

BRAF [4] = biological target: T1, BRAF; assay: Eurofins in vitro kinase inhibition assay; assay type: biochemical; settings: compound 20 µM; mean (SD); above 50% significant, 25-50% weak
Method: (§8) Kinase inhibition assays for EGFR, ErbB2, PI3K and BRAF were carried out by Eurofins Cerep following the protocols of Weber et al. (EGFR), Quian et al. (ErbB2), Sinnamon et al. (PI3K) and Kupcho et al. (BRAF). Briefly, except for PI3K, compounds were incubated with the respective kinase, ATP, and a substrate analog, and the effect of each compound on phosphorylation was measured. In the case of PI3K, the displacement of biotinylated PIP3 from a PIP3-binding complex by unlabelled PIP3 (produced from PIP2 by PI3K) was measured by Homogeneous Time Resolved Fluorescence (HTRF).
(§9) Finally, inhibition of the respective kinases is calculated as the percentage inhibition of control activity.
(§10) Table S3. Experimental results from the Euroﬁns assay. Inhibition of four kinases (EGFR, PI3K, ErbB2, BRAF) was measured at compound concentrations of 20 µM. Inhibition was calculated as % inhibition of control activity. According to CRO, values above 50% inhibition represent signiﬁcant inhibition, values above 25% weak inhibition effect and values below 25% as well as negative values are usually not signiﬁcant. Results are reported in mean (SD) format. […]
(§11) a Compound interfered with assay readout.

EGFR [5] = biological target: T3, EGFR; assay: Eurofins in vitro kinase inhibition assay; assay type: biochemical; settings: compound 20 µM; mean (SD); above 50% significant, 25-50% weak
Method: as §8, §9, §10, §11

ErbB2 [6] = biological target: T4, ErbB2; assay: Eurofins in vitro kinase inhibition assay; assay type: biochemical; settings: compound 20 µM; mean (SD); above 50% significant, 25-50% weak
Method: as §8, §9, §10, §11

PI3K [7] = biological target: T9, PI3K (Homo sapiens, UniProt P42336); assay: Eurofins in vitro kinase inhibition assay (HTRF, PIP3 displacement); assay type: biochemical; parameters: purchased Eurofins Cerep (contract assay); settings: compound 20 µM; mean (SD); above 50% significant, 25-50% weak
Method: as §8, §9, §10, §11
Target sequence in this assay (P42336 whole entry): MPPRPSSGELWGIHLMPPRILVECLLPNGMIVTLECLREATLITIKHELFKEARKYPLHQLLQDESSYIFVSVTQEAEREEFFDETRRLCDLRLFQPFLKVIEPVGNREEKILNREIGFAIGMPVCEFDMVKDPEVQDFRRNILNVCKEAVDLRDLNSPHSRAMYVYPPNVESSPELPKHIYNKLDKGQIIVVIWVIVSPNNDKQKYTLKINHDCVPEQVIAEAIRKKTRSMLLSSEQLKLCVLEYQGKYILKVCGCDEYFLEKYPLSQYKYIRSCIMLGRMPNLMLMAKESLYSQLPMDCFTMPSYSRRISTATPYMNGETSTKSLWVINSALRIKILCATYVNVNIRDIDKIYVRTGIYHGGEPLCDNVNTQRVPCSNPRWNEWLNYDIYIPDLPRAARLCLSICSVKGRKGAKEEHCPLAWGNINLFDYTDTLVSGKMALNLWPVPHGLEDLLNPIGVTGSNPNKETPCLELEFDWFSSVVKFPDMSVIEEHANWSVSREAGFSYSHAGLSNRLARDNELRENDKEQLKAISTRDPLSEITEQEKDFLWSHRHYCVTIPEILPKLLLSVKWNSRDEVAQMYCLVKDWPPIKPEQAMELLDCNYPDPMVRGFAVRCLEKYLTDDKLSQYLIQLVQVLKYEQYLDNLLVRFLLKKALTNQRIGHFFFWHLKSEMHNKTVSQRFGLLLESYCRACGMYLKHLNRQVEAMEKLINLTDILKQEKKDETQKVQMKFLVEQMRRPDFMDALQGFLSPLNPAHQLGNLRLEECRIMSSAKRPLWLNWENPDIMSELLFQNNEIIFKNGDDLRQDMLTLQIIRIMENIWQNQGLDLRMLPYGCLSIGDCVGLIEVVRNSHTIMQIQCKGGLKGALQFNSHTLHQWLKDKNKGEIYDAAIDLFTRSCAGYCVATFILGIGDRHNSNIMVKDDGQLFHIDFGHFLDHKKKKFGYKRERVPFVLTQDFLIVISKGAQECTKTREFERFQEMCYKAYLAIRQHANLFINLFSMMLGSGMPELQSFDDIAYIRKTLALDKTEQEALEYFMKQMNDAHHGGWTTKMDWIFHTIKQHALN
Target sequence in this assay (P27986 whole entry partner): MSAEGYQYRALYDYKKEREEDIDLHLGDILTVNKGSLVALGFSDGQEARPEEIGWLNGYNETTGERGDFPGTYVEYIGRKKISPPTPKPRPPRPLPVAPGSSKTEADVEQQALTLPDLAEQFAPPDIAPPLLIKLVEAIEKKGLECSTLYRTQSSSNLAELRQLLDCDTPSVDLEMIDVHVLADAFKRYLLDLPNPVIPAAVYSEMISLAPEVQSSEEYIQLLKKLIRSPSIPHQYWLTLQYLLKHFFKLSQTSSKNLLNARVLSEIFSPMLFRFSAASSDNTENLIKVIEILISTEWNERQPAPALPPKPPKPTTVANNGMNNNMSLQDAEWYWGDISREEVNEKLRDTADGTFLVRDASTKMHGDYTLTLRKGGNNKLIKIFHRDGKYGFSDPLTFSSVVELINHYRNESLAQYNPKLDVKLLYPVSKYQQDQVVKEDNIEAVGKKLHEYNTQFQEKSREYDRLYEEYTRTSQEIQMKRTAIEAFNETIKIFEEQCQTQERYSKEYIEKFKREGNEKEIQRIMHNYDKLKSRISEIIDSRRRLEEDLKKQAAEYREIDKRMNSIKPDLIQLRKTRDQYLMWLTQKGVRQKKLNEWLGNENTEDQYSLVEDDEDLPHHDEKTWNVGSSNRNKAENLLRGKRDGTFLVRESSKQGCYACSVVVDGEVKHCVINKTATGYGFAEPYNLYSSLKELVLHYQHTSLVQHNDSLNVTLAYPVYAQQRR

PI3K [8] = biological target: T9, PI3K; assay: DiscoverX KINOMEscan competition binding assay; parameters: purchased DiscoverX (KINOMEscan service); host or cells: E. coli BL21-derived host (T7 phage) or HEK-293; settings: compound 10 µM; lower values = higher affinity; below 35% = significant binding
Method: as §1, §2, §3, §4, §5, §6, §7
Target sequence in this assay (P42336 whole entry): as the sequence (P42336 whole entry) above

% control, BRAF (DiscoverX) (BRAF [1])	% control, CDK2 (DiscoverX) (CDK2)	% control, EGFR (DiscoverX) (EGFR [2])	% control, ErbB2 (DiscoverX) (ErbB2 [3])	% control, LCK (DiscoverX) (LCK)	% control, MET (DiscoverX) (MET)	% control, VEGFR2 (DiscoverX) (VEGFR2)	% control, p38α (DiscoverX) (p38α)	% inhibition of control activity, BRAF (Eurofins) (BRAF [4])	% inhibition of control activity, EGFR (Eurofins) (EGFR [5])	% inhibition of control activity, ErbB2 (Eurofins) (ErbB2 [6])	% inhibition of control activity, PI3K (Eurofins) (PI3K [7])	% control, PI3K (DiscoverX) (PI3K [8])	SMILES
100 % control	100 % control	100 % control	100 % control	90 % control	95 % control	100 % control	81 % control	-44.9 (24.1) % inhibition	23.3 (4.2) % inhibition	-8.3 (1.2) % inhibition	22.1 (2.3) % inhibition	100 % control	Cc1ccc(/C=C2\N=C(c3cccc(S(=O)(=O)N(C)C)c3)OC2=O)s1 [DS74871]
89 % control	100 % control	87 % control	96 % control	100 % control	90 % control	100 % control	97 % control	-33.6 (18.1) % inhibition	3.2 (10.7) % inhibition	-0.6 (1.0) % inhibition	17.4 (0.4) % inhibition	100 % control	O=C(Oc1ccc2c3c(c(=O)oc2c1)CCC3)c1cccc(Cl)c1 [DS76514]
100 % control	100 % control	100 % control	94 % control	100 % control	91 % control	98 % control	100 % control	-17.7 (15.6) % inhibition	22.7 (15.5) % inhibition	4.5 (4.9) % inhibition	0.9 (3.6) % inhibition	100 % control	O=C1C[C@@H](c2noc(-c3ccc[nH]c3=O)n2)CN1Cc1ccccc1 [DS52225]
100 % control	100 % control	97 % control	95 % control	87 % control	100 % control	100 % control	83 % control	-22.8 (15.9) % inhibition	11.3 (4.5) % inhibition	-4.6 (2.9) % inhibition	20 (5.2) % inhibition	100 % control	CN(C)S(=O)(=O)c1cccc(C2=N/C(=C\c3cccc(F)c3)C(=O)O2)c1 [DS74631]
97 % control	99 % control	100 % control	100 % control	96 % control	100 % control	100 % control	100 % control	-14.7 (7.4) % inhibition	3.4 (1.8) % inhibition	-7.4 (1.0) % inhibition	-2.8 (0.6) % inhibition	100 % control	C[C@H](COCC(F)(F)F)NC(=O)Cc1n[nH]c(=O)c2ccccc12 [DS04644]
100 % control	100 % control	100 % control	100 % control	100 % control	97 % control	100 % control	99 % control	-22.9 (4.9) % inhibition	7.8 (3.3) % inhibition	5.8 (0.2) % inhibition	0.2 (3.6) % inhibition	87 % control	CCc1nnc(NC(=O)c2nn(-c3ccc(C)cc3)ccc2=O)s1 [DS59212]
